# Measured values published in patent publication US20160229835A1, “NOVEL PYRIDYLOXYACETYL TETRAHYDROISOQUINOLINE COMPOUNDS USEFUL AS NAMPT INHIBITORS” (ELI LILLY AND COMPANY, priority 2013, published 2016).
# Test system: A2780 Cancer Cells
# Experiment: LC-MS Analysis of NAD+ and Carbohydrate Metabolites in A2780 Cancer Cells
# Assay type: cell-based
# Settings: for Metabolite Levels (μM) DHAP / Metabolite Levels (μM) FBP / Metabolite Levels (μM) HP / Metabolite Levels (μM) NAD / Metabolite Levels (μM) SP / Metabolite Levels (μM) FP: A2780 cells, 24 hours
# Method: The purpose of this assay is to measure effects of NAMPT inhibitors on NAD^+ formation in cancer cells. LC-MS analysis of NAD^+ metabolites: nicotinamide mononucleotide (NMN), NAD^+, reduced nicotinamide adenine dinucleotide (NADH), and nicotinamide adenine dinucleotide phosphate (NADP) is performed on an HPLC system coupled to a Thermo Quantum Ultra triple quadrupole mass spectrometer operated in positive heated electrospray mode with selected reaction monitoring detection. For cell extracts, 50 μL of extract and 10 μL of 10 μM internal standard (IS) solution is transferred to a 96-well plate, dried under nitrogen and reconstituted in 50 μL of water. For tissue extracts, 20 μL of extract and 10 μL of IS solution are dried and reconstituted in 50 μL water. The IS solution contains 10 μM nicotinamide-d4 (C/D/N Isotopes), nicotinic acid-d4 (C/D/N Isotopes), nicotinamide mononucleotide-d4 (prepared by custom synthesis) and nicotinamide 1,N^6-ethenoadenine dinucleotide in methanol. The metabolites are separated on a Waters XBRIDGE™ Amide (2.1×50 mm, 3 μm) with an injection volume of 10 μL and a flow rate of 1 mL/minute using 10 mM ammonium acetate in 95% acetonitrile for mobile phase A and 10 mM ammonium acetate in 50% acetonitrile for mobile phase B. The gradient is as follows: 0 minutes, 0% B; 2.5 minutes, 70% B; 2.51 minutes, 100% B; 2.8 minutes, 100% B; 2.81 minutes, 0% B, 3.6 minutes, 0% B.
# The purpose of this assay is to measure effects of NAMPT inhibitors on the levels of metabolites such as glucose-6-phosphate/fructose-6-phosphate/fructose-1-phosphate collectively as hexose phosphate (HP), fructose-1,6-bisphosphate (FBP), glyceraldehyde-3-phosphate (G3P), dihydroxyacetone phosphate (DHAP), 3-phosphoglycerate (3PG), 2-phosphoglycerate (2PG), phosphoenoylpyruvate (PEP), gluconate-6-phosphate (GN6P), xylulose-5-phosphate (X5P), ribulose-5-phosphate (Ru5P), ribose-5-phosphate (R5P), sedoheptulose-7-phosphate/sedoheptulose-1-phosphate collectively as sedoheptulose phosphate (SP), erythrose-4-phosphate (E4P), and α-ketoglutarate (α-KG) derived from glycolysis, the TCA cycle, and the pentose-phosphate pathway in tumor cells. Cells (50,000/well) are grown as described above in 100 μL of Dulbecco's Modified Eagle Medium supplemented with 10% FBS (dialyzed) and 25 mM glucose, and treated with a compound in triplicates in the presence or absence of 10 μM nicotinic acid. After 24 hours of treatment, the growth medium is removed and 200 μL of 80% methanol is added to each well. After incubation at room temperature for 15 minutes, the resulting extracts are transferred to 96-deep-well plates and washed twice with 200 μL of 80% methanol/water. Then, the plates are heat sealed and stored at −80° C., or dried and reconstituted in 100 μL of 25 μM ethylenediaminetetraacetic acid and injected into LC-MS for analysis.
# The LC-MS analysis for carbohydrate metabolites is performed as follows. Chromatographic separations are performed with an HPLC system, which is coupled to an AB Sciex triple quadrupole LC-MS mass spectrometer. Analytes with phosphates are analyzed as follows. The samples are dried and reconstituted in ACN/water solutions and are separated on a Phenomenex Luna amino HPLC column (2.1×30 mm 3 μm) under the conditions as described by Yuan et al. (Nature Protocols, 2012, […], 872-881.). The mass spectrometer is operated under negative ESI MRM mode.
structure (smiles),measurement,setting,value
"COCCS(=O)(=O)Nc1ccc2c(c1)CCN(C(=O)COc1cccnc1)C2 [Example 2, 2-Methoxy-N-[2-[2-(3-pyridyloxy)acetyl]-3,4-dihydro-1H-isoquinolin-6-yl]ethanesulfonamide]",Metabolite Levels (μM) DHAP,compound 0.000508 μM,0.5 µM
same,Metabolite Levels (μM) FBP,compound 0.000508 μM,1.4 µM
same,Metabolite Levels (μM) HP,compound 0.000508 μM,1.6 µM
same,Metabolite Levels (μM) NAD,compound 0.000508 μM,0.527 µM
same,Metabolite Levels (μM) SP,compound 0.000508 μM,0.2 µM
same,Metabolite Levels (μM) DHAP,compound 0.00152 μM,0.9 µM
same,Metabolite Levels (μM) FBP,compound 0.00152 μM,1.8 µM
same,Metabolite Levels (μM) HP,compound 0.00152 μM,1.6 µM
same,Metabolite Levels (μM) NAD,compound 0.00152 μM,0.457 µM
same,Metabolite Levels (μM) SP,compound 0.00152 μM,0.2 µM
same,Metabolite Levels (μM) DHAP,compound 0.00457 μM,3.2 µM
same,Metabolite Levels (μM) FBP,compound 0.00457 μM,2.2 µM
same,Metabolite Levels (μM) HP,compound 0.00457 μM,1.6 µM
same,Metabolite Levels (μM) NAD,compound 0.00457 μM,0.255 µM
same,Metabolite Levels (μM) SP,compound 0.00457 μM,0.2 µM
same,Metabolite Levels (μM) DHAP,compound 0.0137 μM,6.3 µM
same,Metabolite Levels (μM) FBP,compound 0.0137 μM,3.2 µM
same,Metabolite Levels (μM) HP,compound 0.0137 μM,1.9 µM
same,Metabolite Levels (μM) NAD,compound 0.0137 μM,0.087 µM
same,Metabolite Levels (μM) SP,compound 0.0137 μM,0.3 µM
same,Metabolite Levels (μM) DHAP,compound 0.0412 μM,6.5 µM
same,Metabolite Levels (μM) FBP,compound 0.0412 μM,6.4 µM
same,Metabolite Levels (μM) HP,compound 0.0412 μM,2.8 µM
same,Metabolite Levels (μM) NAD,compound 0.0412 μM,0.039 µM
same,Metabolite Levels (μM) SP,compound 0.0412 μM,0.5 µM
same,Metabolite Levels (μM) DHAP,compound 0.123 μM,7.1 µM
same,Metabolite Levels (μM) FBP,compound 0.123 μM,15.5 µM
same,Metabolite Levels (μM) HP,compound 0.123 μM,7.2 µM
same,Metabolite Levels (μM) NAD,compound 0.123 μM,0.023 µM
same,Metabolite Levels (μM) SP,compound 0.123 μM,1.3 µM
same,Metabolite Levels (μM) DHAP,compound 0.37 μM,7.1 µM
same,Metabolite Levels (μM) FBP,compound 0.37 μM,22.8 µM
same,Metabolite Levels (μM) HP,compound 0.37 μM,11.0 µM
same,Metabolite Levels (μM) NAD,compound 0.37 μM,0.022 µM
same,Metabolite Levels (μM) SP,compound 0.37 μM,2.2 µM
same,Metabolite Levels (μM) DHAP,compound 1.111 μM,7.3 µM
same,Metabolite Levels (μM) FBP,compound 1.111 μM,24.1 µM
same,Metabolite Levels (μM) HP,compound 1.111 μM,11.8 µM
same,Metabolite Levels (μM) NAD,compound 1.111 μM,0.017 µM
same,Metabolite Levels (μM) SP,compound 1.111 μM,2.5 µM
same,Metabolite Levels (μM) DHAP,compound 3.333 μM,7.6 µM
same,Metabolite Levels (μM) FBP,compound 3.333 μM,23.4 µM
same,Metabolite Levels (μM) HP,compound 3.333 μM,12.8 µM
same,Metabolite Levels (μM) NAD,compound 3.333 μM,0.02 µM
same,Metabolite Levels (μM) SP,compound 3.333 μM,2.5 µM
same,Metabolite Levels (μM) DHAP,compound 10 μM,7.7 µM
same,Metabolite Levels (μM) FBP,compound 10 μM,21.5 µM
same,Metabolite Levels (μM) HP,compound 10 μM,10.9 µM
same,Metabolite Levels (μM) NAD,compound 10 μM,0.02 µM
same,Metabolite Levels (μM) SP,compound 10 μM,2.1 µM
"CC(C)(O)CS(=O)(=O)Nc1ccc2c(c1)CCN(C(=O)COc1cccnc1)C2 [Example 1, 2-Hydroxy-2-methyl-N-[2-[2-(3-pyridyloxy)acetyl]-3,4-dihydro-1H-isoquinolin-6-yl]propane-1-sulfonamide]",NAD formation,"A2780 cancer cells, in words",dose-dependent inhibition
same,"glycolytic intermediates (HP, FBP, and DHAP/G3P) before and at the G3P dehydrogenase step","A2780 cancer cells, in words",dose-dependent increase
same,"intermediates (PEP, and PG) after the G3P dehydrogenase step","A2780 cancer cells, in words",dose-dependent decrease
same,key intermediates of the pentose phosphate pathway including SP,"A2780 cancer cells, in words",increased
same,Metabolite Levels (μM) DHAP,compound 0.000508 μM,0.6 µM
same,Metabolite Levels (μM) FBP,compound 0.000508 μM,2.5 µM
same,Metabolite Levels (μM) FP,compound 0.000508 μM,1.9 µM
same,Metabolite Levels (μM) NAD,compound 0.000508 μM,0.331 µM
same,Metabolite Levels (μM) SP,compound 0.000508 μM,0.3 µM
same,Metabolite Levels (μM) DHAP,compound 0.00152 μM,0.6 µM
same,Metabolite Levels (μM) FBP,compound 0.00152 μM,3.0 µM
same,Metabolite Levels (μM) FP,compound 0.00152 μM,2.1 µM
same,Metabolite Levels (μM) NAD,compound 0.00152 μM,0.244 µM
same,Metabolite Levels (μM) SP,compound 0.00152 μM,0.3 µM
same,Metabolite Levels (μM) DHAP,compound 0.00457 μM,0.6 µM
same,Metabolite Levels (μM) FBP,compound 0.00457 μM,4.1 µM
same,Metabolite Levels (μM) FP,compound 0.00457 μM,2.4 µM
same,Metabolite Levels (μM) NAD,compound 0.00457 μM,0.089 µM
same,Metabolite Levels (μM) SP,compound 0.00457 μM,0.4 µM
same,Metabolite Levels (μM) DHAP,compound 0.0137 μM,1.0 µM
same,Metabolite Levels (μM) FBP,compound 0.0137 μM,7.2 µM
same,Metabolite Levels (μM) FP,compound 0.0137 μM,3.0 µM
same,Metabolite Levels (μM) NAD,compound 0.0137 μM,0.027 µM
same,Metabolite Levels (μM) SP,compound 0.0137 μM,0.5 µM
same,Metabolite Levels (μM) DHAP,compound 0.0412 μM,2.0 µM
same,Metabolite Levels (μM) FBP,compound 0.0412 μM,19.3 µM
same,Metabolite Levels (μM) FP,compound 0.0412 μM,7.6 µM
same,Metabolite Levels (μM) NAD,compound 0.0412 μM,0.014 µM
same,Metabolite Levels (μM) SP,compound 0.0412 μM,1.3 µM
same,Metabolite Levels (μM) DHAP,compound 0.123 μM,3.8 µM
same,Metabolite Levels (μM) FBP,compound 0.123 μM,34.3 µM
same,Metabolite Levels (μM) FP,compound 0.123 μM,15.1 µM
same,Metabolite Levels (μM) NAD,compound 0.123 μM,0.008 µM
same,Metabolite Levels (μM) SP,compound 0.123 μM,2.6 µM
same,Metabolite Levels (μM) DHAP,compound 0.37 μM,5.0 µM
same,Metabolite Levels (μM) FBP,compound 0.37 μM,40.9 µM
same,Metabolite Levels (μM) FP,compound 0.37 μM,17.2 µM
same,Metabolite Levels (μM) NAD,compound 0.37 μM,0.010 µM
same,Metabolite Levels (μM) SP,compound 0.37 μM,3.2 µM
same,Metabolite Levels (μM) DHAP,compound 1.111 μM,5.4 µM
same,Metabolite Levels (μM) FBP,compound 1.111 μM,38.6 µM
same,Metabolite Levels (μM) FP,compound 1.111 μM,18.0 µM
same,Metabolite Levels (μM) NAD,compound 1.111 μM,0.008 µM
same,Metabolite Levels (μM) SP,compound 1.111 μM,3.3 µM
same,Metabolite Levels (μM) DHAP,compound 3.333 μM,5.2 µM
same,Metabolite Levels (μM) FBP,compound 3.333 μM,43.0 µM
same,Metabolite Levels (μM) FP,compound 3.333 μM,18.8 µM
same,Metabolite Levels (μM) NAD,compound 3.333 μM,0.007 µM
same,Metabolite Levels (μM) SP,compound 3.333 μM,3.4 µM
same,Metabolite Levels (μM) DHAP,compound 10 μM,5.5 µM
same,Metabolite Levels (μM) FBP,compound 10 μM,39.7 µM
same,Metabolite Levels (μM) FP,compound 10 μM,17.1 µM
same,Metabolite Levels (μM) NAD,compound 10 μM,0.008 µM
same,Metabolite Levels (μM) SP,compound 10 μM,2.8 µM
